Experiment: Antagonist activity at CCR4 in mouse Treg cells assessed as inhibition of CCL22-mediated chemotaxis preincubated for 30 mins followed by CCL22 addition and measured after 60 mins in presence of 100% mouse serum by CellTiter-Glo assay

Row | IC50 | Structure (SMILES)
1 | 39 nM | C[C@H](c1ccc(Cl)cc1Cl)n1nc(C#N)c2ncc(N3CC([C@H]4CCCN(CCO)C4)C3)nc21

Experiment: Antagonist activity at CCR4 in human Treg cells assessed as inhibition of CCL22-mediated chemotaxis preincubated for 30 mins followed by CCL22 addition and measured after 60 mins in presence of 100% human serum by CellTiter-Glo assay

Row | IC50 | Structure (SMILES)
2 | 33 nM | C[C@H](c1ccc(Cl)cc1Cl)n1nc(C#N)c2ncc(N3CC([C@H]4CCCN(CCO)C4)C3)nc21

Experiment: Antagonist activity at CCR4 in human CCRF-CEM cells assessed as inhibition of CCL22-mediated chemotaxis preincubated for 30 mins followed by CCL22 addition and measured after 60 mins in presence of 100% human serum by CellTiter-Glo assay

Row | Structure (SMILES) | IC50
3 | Cc1nn([C@H](C)c2ccc(Cl)cc2Cl)c2nc(N3CC([C@H]4CCCN(CCS(N)(=O)=O)C4)C3)cnc12 | 717 nM
4 | Cc1nn([C@H](C)c2ccc(Cl)cc2Cl)c2nc(N3CC([C@H]4CCCN(CCNS(C)(=O)=O)C4)C3)cnc12 | 136 nM
5 | Cc1nn([C@H](C)c2ccc(Cl)cc2Cl)c2nc(N3CC([C@H]4CCCN(CCS(C)(=O)=O)C4)C3)cnc12 | 575 nM
6 | Cc1nn([C@H](C)c2ccc(Cl)cc2Cl)c2nc(N3CC([C@H]4CCCN(CCCS(C)(=O)=O)C4)C3)cnc12 | 259 nM
7 | Cc1nn([C@H](C)c2ccc(Cl)cc2Cl)c2nc(N3CC([C@H]4CCCN(CCCC(=O)O)C4)C3)cnc12 | 559 nM
8 | Cc1nn([C@H](C)c2ccc(Cl)cc2Cl)c2nc(N3CC([C@H]4CCCN(CCC(=O)O)C4)C3)cnc12 | 370 nM
9 | C[C@H](c1ccc(Cl)cc1Cl)n1nc(C#N)c2ncc(N3CC([C@H]4CCCN(CCC(=O)O)C4)C3)nc21 | 409 nM
10 | C[C@H](c1ccc(Cl)cc1Cl)n1nc(C#N)c2ncc(N3CC([C@H]4CCCN(CC(=O)O)C4)C3)nc21 | 775 nM
11 | Cc1nn([C@H](C)c2ccc(Cl)cc2Cl)c2nc(N3CC([C@H]4CCCN(CCC(N)=O)C4)C3)cnc12 | 247 nM
12 | COC(=O)NCCN1CCC[C@H](C2CN(c3cnc4c(C)nn([C@H](C)c5ccc(Cl)cc5Cl)c4n3)C2)C1 | 133 nM
13 | C[C@H](c1ccc(Cl)cc1Cl)n1nc(C#N)c2ncc(N3CC([C@H]4CCCN(CCC#N)C4)C3)nc21 | 523 nM
14 | C[C@H](c1ccc(Cl)cc1Cl)n1nc(C#N)c2ncc(N3CC([C@H]4CCCN(CCC(F)(F)F)C4)C3)nc21 | 1500 nM
15 | CNC(=O)c1nn([C@H](C)c2ccc(Cl)cc2Cl)c2nc(N3CC([C@H]4CCCN(CCO)C4)C3)cnc12 | 446 nM
16 | C[C@H](c1ccc(Cl)cc1Cl)n1nc(C(=O)N(C)C)c2ncc(N3CC([C@H]4CCCN(CCO)C4)C3)nc21 | 379 nM

Stronger by IC50, values ahead:

Row | IC50 | Structure (SMILES)
17 | 115 nM | Cc1nn([C@H](C)c2ccc(Cl)cc2Cl)c2nc(N3CC([C@H]4CCCN(CCNS(=O)(=O)C(C)C)C4)C3)cnc12
18 | 109 nM | Cc1nn([C@H](C)c2ccc(Cl)cc2Cl)c2nc(N3CC([C@H]4CCCN(CCCO)C4)C3)cnc12
19 | 97 nM | C[C@H](c1ccc(Cl)cc1Cl)n1nc(C#N)c2ncc(N3CC([C@H]4CCCN(Cc5cnc[nH]5)C4)C3)nc21
20 | 74 nM | Cc1nn([C@H](C)c2ccc(Cl)cc2Cl)c2nc(N3CC([C@H]4CCCN(CCO)C4)C3)cnc12
21 | 59 nM | Cc1nn([C@H](C)c2ccc(Cl)cc2Cl)c2nc(N3CC([C@H]4CCCN(CCNC(=O)C(C)C)C4)C3)cnc12
22 | 50 nM | C[C@H](c1ccc(Cl)cc1Cl)n1nc(C#N)c2ncc(N3CC([C@H]4CCCN(CCO)C4)C3)nc21
23 | 40 nM | CC(=O)NCCN1CCC[C@H](C2CN(c3cnc4c(C)nn([C@H](C)c5ccc(Cl)cc5Cl)c4n3)C2)C1
24 | 36 nM | C[C@H](c1ccc(Cl)cc1Cl)n1nc(C(N)=O)c2ncc(N3CC([C@H]4CCCN(CCO)C4)C3)nc21

Experiment: Antagonist activity at CCR4 in human CCRF-CEM cells assessed as inhibition of CCL17-mediated chemotaxis preincubated for 30 mins followed by CCL17 addition and measured after 60 mins in presence of 100% human serum by CellTiter-Glo assay

Row | IC50 | Structure (SMILES)
25 | 64 nM | C[C@H](c1ccc(Cl)cc1Cl)n1nc(C#N)c2ncc(N3CC([C@H]4CCCN(CCO)C4)C3)nc21
